Test: Safety (adverse events, NCI CTCAE v4.0), expansion phase
Settings: expansion QW 40 mg
Text: Based on data collected during dose-escalation, the expansion phase evaluated the safety and efficacy of QD and QW sapanisertib in patients with RCC, endometrial or bladder cancer. Patients could continue receiving sapanisertib for ≤1 year (or beyond, if the investigator and sponsor agreed) in the absence of disease progression or unacceptable toxicity.
Patients who received ≥1 dose of sapanisertib were included in the safety population. The response-evaluable population included patients who received ≥1 dose of sapanisertib, had measurable disease at baseline, and had ≥1 postbaseline assessment. […] Adverse events (AEs) were assessed using the National Cancer Institute Common Terminology Criteria for Adverse Events, v4.0. Patients were provided with a home blood-glucose meter to monitor their fasting predose blood-glucose measurements to assess hyperglycaemia as an on-target AE and PD marker.

CC(C)n1nc(-c2ccc3oc(N)nc3c2)c2c(N)ncnc21 [Sapanisertib]
Abdominal pain, all-grade AE of any cause: 4 (15) n (%) | Abdominal pain, grade ≥3 AE of any cause: 0 (0) n (%) | Acute kidney injury, grade ≥3 AE of any cause: 2 (8) n (%) | Acute kidney injury, treatment-related AE: 4 (15) n (%) | Anaemia, all-grade AE of any cause: 11 (42) n (%) | Anaemia, grade ≥3 AE of any cause: 3 (12) n (%) | Anaemia, treatment-related AE: 8 (31) n (%) | Any AE: 26 (100) n (%) | Any AE resulting in dose modification/interruption: 20 (77) n (%) | Any AE resulting in treatment discontinuation: 2 (8) n (%) | Any SAE: 9 (35) n (%) | Any grade ≥3 AE: 19 (73) n (%) | Any treatment-related AE: 26 (100) n (%) | Any treatment-related SAE: 4 (15) n (%) | Any treatment-related grade ≥3 AE: 14 (54) n (%) | Arthralgia, all-grade AE of any cause: 7 (27) n (%) | Asthenia, grade ≥3 AE of any cause: 2 (8) n (%) | Asthenia, treatment-related AE: 4 (15) n (%) | Asthenia, treatment-related grade ≥3 AE: 1 (4) n (%) | Blood creatinine increased, all-grade AE of any cause: 5 (19) n (%) | Blood creatinine increased, treatment-related AE: 4 (15) n (%) | Constipation, all-grade AE of any cause: 10 (38) n (%) | Constipation, grade ≥3 AE of any cause: 1 (4) n (%) | Cough, all-grade AE of any cause: 8 (31) n (%) | Decreased appetite, all-grade AE of any cause: 14 (54) n (%) | Decreased appetite, treatment-related AE: 14 (54) n (%) | Dehydration, all-grade AE of any cause: 7 (27) n (%) | Dehydration, grade ≥3 AE of any cause: 3 (12) n (%) | Dehydration, treatment-related AE: 5 (19) n (%) | Dehydration, treatment-related grade ≥3 AE: 2 (8) n (%) | Depression, all-grade AE of any cause: 3 (12) n (%) | Diarrhoea, all-grade AE of any cause: 13 (50) n (%) | Diarrhoea, grade ≥3 AE of any cause: 1 (4) n (%) | Diarrhoea, treatment-related AE: 13 (50) n (%) | Diarrhoea, treatment-related grade ≥3 AE: 1 (4) n (%) | Dizziness, all-grade AE of any cause: 3 (12) n (%) | Dry mouth, all-grade AE of any cause: 7 (27) n (%) | Dry mouth, treatment-related AE: 6 (23) n (%) | Dysgeusia, all-grade AE of any cause: 3 (12) n (%) | Dysgeusia, treatment-related AE: 3 (12) n (%) | Dyspepsia, treatment-related AE: 2 (8) n (%) | Dyspnoea, grade ≥3 AE of any cause: 0 (0) n (%) | Fatigue, all-grade AE of any cause: 24 (92) n (%) | Fatigue, grade ≥3 AE of any cause: 4 (15) n (%) | Fatigue, treatment-related AE: 23 (88) n (%) | Fatigue, treatment-related grade ≥3 AE: 4 (15) n (%) | Haematuria, grade ≥3 AE of any cause: 0 (0) n (%) | Headache, all-grade AE of any cause: 6 (23) n (%) | Headache, treatment-related AE: 4 (15) n (%) | Hypercholesterolemia, treatment-related AE: 0 (0) n (%) | Hyperglycaemia, all-grade AE of any cause: 20 (77) n (%) | Hyperglycaemia, grade ≥3 AE of any cause: 6 (23) n (%) | Hyperglycaemia, treatment-related AE: 20 (77) n (%) | Hyperglycaemia, treatment-related grade ≥3 AE: 6 (23) n (%) | Hyperkalaemia, grade ≥3 AE of any cause: 0 (0) n (%) | Hypertension, grade ≥3 AE of any cause: 1 (4) n (%) | Hypokalaemia, grade ≥3 AE of any cause: 0 (0) n (%) | Hyponatremia, grade ≥3 AE of any cause: 1 (4) n (%) | Hypophosphatemia, grade ≥3 AE of any cause: 2 (8) n (%) | Hypophosphatemia, treatment-related AE: 4 (15) n (%) | Hypophosphatemia, treatment-related grade ≥3 AE: 2 (8) n (%) | Lymphopenia, grade ≥3 AE of any cause: 1 (4) n (%) | Lymphopenia, treatment-related grade ≥3 AE: 0 (0) n (%) | Musculoskeletal chest pain, grade ≥3 AE of any cause: 1 (4) n (%) | Nausea, all-grade AE of any cause: 20 (77) n (%) | Nausea, grade ≥3 AE of any cause: 2 (8) n (%) | Nausea, treatment-related AE: 20 (77) n (%) | Nausea, treatment-related grade ≥3 AE: 2 (8) n (%) | Oedema peripheral, all-grade AE of any cause: 5 (19) n (%) | On-study deaths: 1 (4) n (%) | Oropharyngeal pain, all-grade AE of any cause: 9 (35) n (%) | Pain in extremity, grade ≥3 AE of any cause: 1 (4) n (%) | Pneumonia, grade ≥3 AE of any cause: 0 (0) n (%) | Pruritus generalised, all-grade AE of any cause: 3 (12) n (%) | Pruritus generalised, treatment-related AE: 2 (8) n (%) | Pruritus generalised, treatment-related grade ≥3 AE: 0 (0) n (%) | Pruritus, all-grade AE of any cause: 4 (15) n (%) | Pruritus, treatment-related AE: 3 (12) n (%) | Pyrexia, all-grade AE of any cause: 5 (19) n (%) | Rash maculo-papular, all-grade AE of any cause: 4 (15) n (%) | Rash maculo-papular, grade ≥3 AE of any cause: 1 (4) n (%) | Rash maculo-papular, treatment-related AE: 1 (4) n (%) | Rash maculo-papular, treatment-related grade ≥3 AE: 0 (0) n (%) | Rash, treatment-related AE: 1 (4) n (%) | Rash, treatment-related grade ≥3 AE: 0 (0) n (%) | Sepsis, grade ≥3 AE of any cause: 0 (0) n (%) | Stomatitis (includes oropharyngeal pain and mucosal inflammation), treatment-related AE: 10 (38) n (%) | Stomatitis, all-grade AE of any cause: 12 (46) n (%) | Stomatitis, grade ≥3 AE of any cause: 1 (4) n (%) | Stomatitis, treatment-related grade ≥3 AE: 1 (4) n (%) | Thrombocytopenia, grade ≥3 AE of any cause: 1 (4) n (%) | Thrombocytopenia, treatment-related grade ≥3 AE: 1 (4) n (%) | Transitional cell carcinoma, grade ≥3 AE of any cause: 1 (4) n (%) | Urinary tract infection, all-grade AE of any cause: 8 (31) n (%) | Vomiting, all-grade AE of any cause: 20 (77) n (%) | Vomiting, grade ≥3 AE of any cause: 1 (4) n (%) | Vomiting, treatment-related AE: 19 (73) n (%) | Weight decreased, all-grade AE of any cause: 7 (27) n (%) | Weight decreased, treatment-related AE: 4 (15) n (%)
